Patent US7351747B2, “Skin treatment for relief of itch” (priority 2003, dated 2008)

Tested on: skin itch
Assay: Topical application of chlorhydrate composition to individuals with skin itch
Assay type: in vivo, human
Method: Three individuals, each complaining of skin itch of undetermined origin, were treated as follows. A composition was prepared at a concentration of aluminum chlorhydrate of about 10 to about 20 weight percent in water and further including a small quantity of a quaternary ammonium compound as a preservative.
An adult individual has applied 30% wt. of aluminum chlorhydrate in a topical cream to an area of the forearm experiencing itch.
An adult complains of itch on their legs.
An adult complaining of itch on their forearms and legs applies an ointment composition including 25% wt. of aluminum zirconium chlorhydrate to the affected areas.
An aqueous composition comprising aluminum chlorhydrate at a concentration of about 20 weight percent is applied to a synthetic fabric wipe and sealed in a tear-open pouch. Subsequently, an adult experiencing itch on their forearms tears open the pouch and wipes the area of the skin with the moist wipe; the wipe and pouch are discarded after use.

[1] = adult female, legs, 30% wt. in a lotion
[2] = adult male, forearms, aqueous composition about 20 weight percent on synthetic fabric wipe
[3] = adult male, forearms and legs, ointment composition including 25% wt.

Substance | duration of relief of itch [1] | time to relief of itch [1] | relief of skin itch (adult individual, forearm, 30% wt. in a topical cream, no other active agent) | duration of relief from itching [2] | time to relief from itching [2] | time to relief from itching (three adults (one male, two female), skin itch of undetermined origin, about 10 to about 20 weight percent in water with quaternary ammonium preservative, pump spray) | duration of relief from itching (three adults, skin itch of undetermined origin, about 10 to about 20 weight percent in water, pump spray) | adverse side effects (three adults, about 10 to about 20 weight percent in water, pump spray to itching skin) | duration of relief of itch [3] | time to relief of itch [3]
aluminum chlorhydrate | about 24 hours | within a few minutes | relieves the skin itch | about a day | within minutes | within a few minutes | about one day | No adverse side effects were reported |  | 
aluminum zirconium chlorhydrate |  |  |  |  |  |  |  |  | about 24 hours | within minutes
